Test: physchem
Details: octan-1-ol/water, pH 7.4

SMILES | logD
NC(Cc1ccc(N(CCCl)CCCl)cc1)C(=O)O (configuration not stated) [SARCOLYSIN] | 0.39
O=C(NCC1CCOCC1)c1nc(OS(=O)(=O)CCC(F)(F)F)ccc1NC(=O)c1ccc(Cn2ccnn2)c2ccccc12 | 4.2
O=C(NCc1ccncn1)c1ccc(Oc2ccc(C#C[C@]3(O)CN4CCC3CC4)cc2)cc1 | 1.78
O=C1O[C@]2(CN3CCC2CC3)CN1c1ccc(Br)s1 | 2
NC(=O)c1cccc(O[C@H]2C[C@H]3CC[C@@H](C2)N3Cc2ccccc2)n1 | 1.71
CN(C)C(=O)N[C@H]1CC[C@@H](CCN2[C@@H]3CC[C@H]2C[C@@H](Oc2cccc(C(N)=O)c2)C3)CC1 | 0.22
CNC1=Nc2ncccc2C(c2ccco2)=NC1c1ccns1 (configuration not stated) | 1.44
CC(CC(=O)NCc1ccccc1)C1CCCO1 (configuration not stated) | 2.1
O=C(O)CCCc1ccc(N(CCCl)CCCl)cc1 [CHLORAMBUCIL] | 1.47
Nc1nc(Nc2ccc3nc(-c4ccc(F)cc4)cc(N)c3c2)cc(-c2cccc(Cl)c2)n1 | 2.5
Cc1cc(N)c2cc(NC(=O)CC(=O)Nc3ccc4nc(C)cc(N)c4c3)ccc2n1 | 1.35
CC(C)(C)c1ccc(C2=NC(=O)C(CC(=O)O)S2)cc1 (configuration not stated) | -0.1
CCN(CC)C(=O)c1ccc(C(=C2CCNCC2)c2ccc(Cl)c(Cl)c2)cc1 | 2.4
Oc1ccc2c3c1O[C@H]1c4[nH]c5c(c4C[C@@]4(O)[C@@H](C2)N(CC2CC2)CC[C@]314)C[C@@]1(O)[C@H]2Cc3ccc(O)c4c3[C@@]1(CCN2CC1CC1)[C@H]5O4 [NORBINALTORPHIMINE] | 1.41
O=C(c1ccc(C(=C2CCN(Cc3cscn3)CC2)c2cccc3cccnc23)cc1)N1CCC(O)CC1 | 1.89
CNC(=O)c1ccc(Nc2nccc(-c3cnc(C4CC4)n3C(C)C)n2)cc1 | 2.77
CCN(CC)C(=O)c1ccc([C@H](c2cccc(NC(=O)C3CC3)c2)N2CCN(Cc3ccc(F)cc3)CC2)cc1 | 3.99
C[C@H]1NC(C)(C)CO[C@]1(O)c1cccc(Cl)c1 | 1.69
CC1(C)CC(=O)c2c(nc3ccccc3c2N)C1 | 3
CC(C)(C)OC(=O)N1CCN(c2ncc(OCc3ccncc3C#N)cn2)CC1 | 2.81

Same assay, conditions: octan-1-ol/water, pH 7.4, LogD7.4

SMILES | logD
CC(C)c1ccccc1Cc1cc(C(=O)Nc2ccc(S(=O)(=O)c3ccccc3C(C)(C)C)cc2)c(O)c(O)c1O | 3.44
Cc1ccc(O)c(O)c1 | 1.37
CCC[C@H](CO)Nc1nc(SCc2ccccc2)nc2nc(N)sc12 | 3.8
O=C(Nc1ccc(Cl)c(Cl)c1)N1CCN(C[C@@H]2CCCN(CC3CC3)C2)CC1 | 2.54
COc1cc2ncc(C(N)=O)c(Nc3ccc(F)cc3F)c2cc1OC | 2.95
COc1cc2ncnc(Nc3ccc(F)c(Cl)c3)c2cc1OCCCN1CCCC1 | 3.13
CS(=O)(=O)NCC(NC(=O)C1(N)CCN(c2ncnc3[nH]ccc23)CC1)c1ccc(Cl)cc1 (configuration not stated) | 2.1
Cc1ccnc(NS(=O)(=O)c2ccc(N)cc2)n1 [SULFAMERAZINE] | -0.51
CC[C@H](NC(=O)c1c([S+](C)[O-])c(-c2ccccc2)nc2cc(F)ccc12)c1ccccc1 (some centres not stated) | 3.62
CCNC(=O)OC[C@@H](C)N(c1cc(Cl)ccc1CO)S(=O)(=O)c1ccc(Cl)cc1 | 3.4
COC1/C=C/OC2(C)Oc3c(C)c(O)c4c(c3C2=O)C(=O)C=C(NC(=O)/C(C)=C\C=C\C(C)C(O)C(C)C(O)C(C)C(OC(C)=O)C1C)C4=O (configuration not stated) | 0.7
COc1cc(C(=O)Nc2ccc(Cl)c(-c3nc4ccccc4[nH]3)c2)cc(OC)c1OC | 3.83
CCOC(=O)c1ccc(COC2CN(c3ccc(C)nn3)C2)cc1 | 2.5
Cc1nc2ccc(NC(=O)CCNC(N)=O)cc2s1 | 0.9
Clc1cccc2cn[nH]c12 | 2.33
CC(C)N(c1nnc(N)s1)C(C)C | 1.49
CCCCC(O)c1[nH]c2cc(C)c(C(=O)O)cc2c1CCc1ccccc1 (configuration not stated) | 2.59
c1ccc(-c2n[nH]c(-c3ccncc3)n2)nc1 | 1.48
Cc1ccc(Oc2ccc(C(=O)NCc3ccncc3)cc2)cc1 | 3.65
CN(C)c1nc(N[C@H]2CC[C@@H](NC(=O)c3ccc(F)c(F)c3)CC2)nc2ccccc12 | 3.13
c1cnc2cccnc2c1 | 0.89
NC(=O)c1cnc2[nH]c(-c3ccc(OCCN4CCCCC4)cc3)nc2c1NCCCNC(=O)C1CCC1 | 2.48

SMILES | logD
CN(C)CCCn1c2c(c3ccccc31)CCCCCC2 [IPRINDOLE] | 2.96
Nc1ccn([C@@H]2O[C@H](CO)[C@@H](O)C2(F)F)c(=O)n1 [GEMCITABINE] | -1.5
C#Cc1cccc(Nc2nc3cc(C(=O)O)ccc3c3cncnc23)c1 | 0.92
CS(=O)(=O)c1ccc(C(=O)NC[C@@H](O)CN2CCC(Oc3ccc(Cl)c(Cl)c3)CC2)s1 | 2.86
CC(C)C(NC(=O)Cn1c(-c2cc(F)cc(F)c2)ncc(N)c1=O)C(=O)C(F)(F)F (configuration not stated) | 1.38
O=c1c2cnn(-c3ccccc3)c2nc(-c2ccco2)n1-c1ccccc1 | 3.29
CN(C/C=C/C#CC(C)(C)C)Cc1cccc2ccccc12 [TERBINAFINE] | 2.83
Cc1cc(O)ccc1N1C(=O)c2ccc(O)cc2C1=O | 2
Cn1c(=O)c2c(ncn2CC(O)CO)n(C)c1=O (configuration not stated) [DYPHYLLINE] | -1.25
CC(=O)Nc1ccc2c(c1)c(-c1cc(NC3CC3)n3ncc(C#N)c3n1)cn2C | 2.94
COc1cc2ncnc(Nc3cc(NC(=O)c4cccc(N(C)C)c4)ccc3Cl)c2cc1OC | 4.26
COc1cc(N2CCN(C(N)=O)CC2)ccc1Nc1ncc(Cl)c(-c2cnc3ccccn23)n1 | 3.3
CCC(c1nc2ccsc2c(=O)n1Cc1ccccc1)N(CCCN)C(=O)c1ccc(C)cc1 (configuration not stated) | 1.81
Cc1cccc(C)c1NC(=O)C(C)N (configuration not stated) [TOCAINIDE] | -0.15
COc1cc(C(=O)Nc2ccc(N3CCOCC3)cc2)nc2c(N3CCN(C)CC3)cc(F)cc12 | 3.85
O=C(NCc1ccccc1)c1cccnc1Oc1ccccc1 | 3
COCCOc1cc2nccc(Nc3cc(O)c(Cl)cc3F)c2cc1OC | 2.64
NC1(C(=O)NC(CCCN2CCCC2)c2ccc(Cl)cc2)CCN(c2ncnc3[nH]ccc23)CC1 (configuration not stated) | 1.3
O=c1c2ccccc2nc2ccccn12 | 2.1
CCOC(=O)c1cc(O)c(-c2ccccc2)nn1 | 0.69
CCN(C(=O)NCc1ccc(F)cc1)C1CCN(CCC(c2ccccc2)c2ccccc2)CC1 | 3.9
O=C(NC1Cc2ccccc2N(CC(CO)CO)C1=O)c1cc2cc(Cl)ccc2[nH]1 (configuration not stated) | 3.64

SMILES | logD
O=C(O)C(c1ccccc1)N1CCO[C@@H](CN2CCC(Oc3ccc(Cl)c(Cl)c3)CC2)C1 (some centres not stated) | 1.71
Nc1ccccc1NC(=O)c1ccc(CNC(=O)OCc2cccnc2)cc1 [ENTINOSTAT] | 1.26
O=S(=O)(Nc1ncc(Cl)s1)c1cc(F)c(Oc2ccc(F)cc2-c2cn[nH]c2)cc1F | 2.7
COc1cc2ncc(C(N)=O)c(Nc3cc(F)ccc3F)c2cc1OC | 2.9
COc1cc2c(Nc3ccc(F)c(Cl)c3)c(C(N)=O)cnc2cc1OCCCN1CCN(C)CC1 | 1.2
NC(=O)c1sc2nccc(Nc3ccccc3)c2c1N | 2.91
COc1ccc2c(C)cc(N[C@H]3CC[C@H](NCc4cn(C)c5ccccc45)C3)nc2c1 | 2.53
CC(C)Oc1cc(OCCc2cccnc2)cc(C(=O)Nc2ccc(C(=O)O)cn2)c1 | 0.81
CCN(CC)CCOc1ccc(/C(=C(/Cl)c2ccccc2)c2ccccc2)cc1 [ENCLOMIPHENE] | 4.09
NNC(=O)c1ccncc1 [ISONIAZID] | -0.57
CC(=O)N[C@H](C)c1ccc(Nc2ncc3cc(-c4ccncc4)cc(C)c3n2)cc1 | 3.46
Cn1c(-c2ccccc2)cc2onc(-c3ccncc3)c2c1=O | 3.17
Cc1ccc(CO)cc1N(C)c1ccnc(Nc2cc(N3CCOCC3)nc(N3CCOCC3)n2)n1 | 3.9
CCN1CCOC(C(=O)N2CCN(C(=O)Nc3ccc(Cl)c(Cl)c3)CC2)C1 (configuration not stated) | 2.1
Cc1cccc(Cn2ccn3c(=O)cc(N4CCOCC4)nc23)c1 | 2.8
Cc1ccc(-c2ccc(N)nn2)cc1NC(=O)c1ccc(OCc2ccccn2)cc1 | 2.47
Nc1nc(N)c2cc(Br)ccc2n1 | 1.78
COc1ccc(-c2cc(=O)c3ccccc3[nH]2)cc1 | 2.71
CNc1ccc2ncc(-c3cccc(O)c3)n2n1 | 2.99
Nc1nnc(CCSCCc2nnc(N)s2)s1 | -0.1
O=C(Nc1ccc(Nc2ccc(NC(=O)c3ccccc3)c3c2C(=O)c2ccccc2C3=O)c2c1C(=O)c1ccccc1C2=O)c1ccccc1 | 2.63
CCN(CCO)CCCC(C)Nc1ccnc2cc(Cl)ccc12 (configuration not stated) [HYDROXYCHLOROQUINE] | 0.77

SMILES | logD
Nc1[nH]ncc1S(=O)(=O)c1ccccc1 | 1.1
C#CCN(c1cc(Nc2ccc(OCC(O)CN(C)C)cc2)ncn1)c1cc(Cl)ccc1Cl (configuration not stated) | 2.8
Cc1cc(Nc2ccccc2)n(CCC#N)n1 | 2.3
O=c1cc(-c2ccccc2)oc2cc(O)cc(O)c12 [CHRYSIN] | 3.83
NNCCc1ccccc1 [PHENELZINE] | -0.01
COc1ncc(-c2cccc3c2C[C@H](NC(=O)c2ccc(OCC(F)(F)F)nc2)CO3)cn1 | 4.3
NS(=O)(=O)c1cccc(Nc2nccc(Nc3c(Cl)ccc4c3OCO4)n2)c1 | 2.97
CC[C@H](NC(=O)c1c(S(C)(=O)=O)c(-c2ccccc2)nc2ccccc12)c1ccccc1 | 3.17
Clc1ccc(C2(c3ccc(-c4cn[nH]c4)cc3)CCNCC2)cc1 | 1.51
Nc1ncc(NC(=O)c2cc(NC(=O)c3cccc(C(F)(F)F)c3)ccc2Cl)cc1Cl | 3.26
CCN(C(=O)Cc1ccc(S(C)(=O)=O)cc1)C1CCN(CCC(c2ccccc2)c2ccc(C#N)cc2)CC1 (configuration not stated) | 2.76
O=C(Cc1ccc(O)cc1)c1ccc(O)cc1O | 2.54
OC(c1ccccc1)c1cccnc1 (configuration not stated) | 1.72
C[C@@H](NC(=O)C1(N)CCN(c2ncnc3[nH]ccc23)CC1)c1ccc(Cl)cc1 | 3.3
COc1cc2ncc(C(N)=O)c(Nc3cc(C)ccc3F)c2cc1OC | 3.16
COC(=O)c1c(C)[nH]c(C)c1C(=O)c1ccccc1Cl | 2.7
O=[N+]([O-])c1ccc(C=NO)o1 | 1.31
COc1cc2nnc(C(N)=O)c(Nc3cccc(Cl)c3F)c2cc1N1CCN(C)CC1 | 2.35
N=C(N)NC(=O)c1nc(Cl)c(NCc2ccccn2)nc1N | -0.56
COc1cc2ncnc(N3CC[C@@H](Oc4cnc5ccccc5n4)C3)c2cc1OC | 4.04
CC(C)[C@@H](CO)NS(=O)(=O)c1ccc(Cl)s1 | 2.3
